Where two headings read alike, the source gives them in different places.
Legend:
Assay type in all cases: cell-based
[1] = test system: LS513 colon cancer cell with KRAS G12D mutation; test: Proliferation inhibition on RAS cell lines measured by CTG, LS513; details: LS513 cells, incubated for 6 days, CellTiter Glo
Description: (§1) NCI-H358 is a human non-small cell lung cancer cell line with KRAS G12C mutation; AGS is a gastric cancer cell line with KRAS G12D mutation; SW620 is a colon cancer cell with KRAS G12V mutation; NCI-H460 is a non-small cell lung cancer cell with KRAS Q61H mutation; MKN1 is a wild-type gastric cancer cell with KRAS-amplified; LS513 is a colon cancer cell with KRAS G12D mutation; LoVo is a colon cancer cell with KRAS G13D mutation; NCI-H441 is a lung cancer cell with KRAS G12V mutation, and Capan-2 is a pancreatic cancer cell with KRAS G12V mutation.
(§2) The proliferation inhibitory effect of the compounds on various mutations was evaluated by determining the proliferation inhibitory activity of the compounds on these cell lines.
(§3) The assay was conducted on either 384-well plates or 96-well plates. The procedures are as follows:
(§4) The cell suspensions were added to 384- or 96-well plates (384-well plate: 50 μL; 96-well plate: 100 μL) except for peripheral wells. The plates were placed in a carbon dioxide incubator overnight. NCI-H358, AGS, NCI-H460, MKN-1, LS513, LoVo, and NCI-H441 were placed in a 5%, 370 carbon dioxide incubator overnight, and SW620 was placed in a 0%, 370 carbon dioxide incubator overnight. The HPD300 micro-dosing instrument was used to add the corresponding concentration of compound to each well (9-10 concentration gradients of compound were obtained by 3-fold dilution). Cell plates were incubated in a carbon dioxide incubator for 5-6 days. NCI-H358, AGS, NCI-H460 and MKN-1 were incubated at 5%, 37° incubator and SW620 was incubated at 0%, 370 incubator. On the day of plate measurement, the 384- or 96-well plates were first equilibrated at room temperature for 10-30 min, then CellTiter Glo reagent (384-well plate: 25 μL; 96-well plate: 100 μL) was added to the 384- or 96-well plate, shaken for 10 min away from light, and incubated for 10 min. The plates were placed into Victor NIVO or ENVIDION reader plates, and XLFit was utilized to plot the pharmacodynamic inhibition curve and calculate the IC50 value. “IC50>10 μM” is denoted by “*”, “10 μM≥IC50≥1 μM” is denoted by “**”, and “1 μM≥IC50>100 nM” is denoted by “***”, “IC50<100 nM” is denoted by “****”

[2] = test system: NCI-H441 lung cancer cell with KRAS G12V mutation; test: Proliferation inhibition on RAS cell lines measured by CTG, NCI-H441; details: Homo sapiens, Table 2, NCI-H441 cells, incubated for 6 days, CellTiter Glo
Description: as §1, §2, §3, §4

[3] = test system: Capan-2 pancreatic cancer cell with KRAS G12V mutation; test: Proliferation inhibition on RAS cell lines measured by CTG, Capan-2; details: Homo sapiens, 144 h; Table 2; Capan-2 cells, incubated for 6 days, CellTiter Glo; read-out: IC50 (Capan-2^i)
Description: as §1, §2, §3, §4

[4] = test system: SW620 colon cancer cell with KRAS G12V mutation; test: Proliferation inhibition on RAS cell lines measured by CTG, SW620; details: Homo sapiens, SW-620, 144 h; Table 2; SW620 cells, incubated for 6 days, CellTiter Glo; read-out: IC50 (SW620^c)
Description: as §1, §2, §3, §4

GP2D cells = test: Proliferation inhibition on RAS cell lines measured by CTG, GP2D; details: Table 3, incubated for 6 days, CellTiter Glo, read-out: IC50 (GP2D^l)
Description: as §2, §3, §4

[5] = Homo sapiens, LS-513, 144 h, Table 2, read-out: IC50 (LS513^f)
[6] = Table 3, read-out: IC50 (LS513^k)
[7] = Homo sapiens, LS-513, 144 h, Table 3, read-out: IC50 (LS513^k)

IC50 [1, 5] [nM]	IC50 [1, 7] [nM]	Structure (SMILES)	IC50 (GP2D cells; 144 h) [nM]	other results
100 to 1000		C#Cc1c(F)ccc2cc(O)cc(-c3ncc4c(N5CCCCCCN5)nc(OC[C@@]56CCCN5C[C@H](F)C6)nc4c3F)c12 [Compound 15]		IC50 ([2]; NCI-H441, 144 h): 100 to 1000 nM
< 100		C#Cc1c(F)ccc2cc(O)cc(-c3ncc4c(N5CCCCN5C(=O)OC(C)(C)C)nc(OC[C@@]56CCCN5C[C@H](F)C6)nc4c3F)c12 [Compound 17]		IC50 ([2]; NCI-H441, 144 h): 100 to 1000 nM
1000 to 10000		C#Cc1c(F)ccc2cc(O)cc(-c3ncc4c(N5CCCN5)nc(OC[C@@]56CCCN5C[C@H](F)C6)nc4c3F)c12 [Compound 18]		IC50 ([2]; NCI-H441, 144 h): 1000 to 10000 nM
< 100		C#Cc1c(F)ccc2cc(OC(=O)C(C)C)cc(-c3ncc4c(N5CCCCCN5)nc(OC[C@@]56CCCN5C[C@H](F)C6)nc4c3F)c12 [Compound 23]		IC50 ([2]; NCI-H441, 144 h): < 100 nM
< 100		C#Cc1c(F)ccc2cc(O)cc(-c3ncc4c(N5CCCCCN5)nc(OCC56CCCN5CC(=C)C6)nc4c3F)c12 (centres unmarked) [Compound 24]		IC50 ([2]; NCI-H441, 144 h): 100 to 1000 nM
< 100		C#Cc1c(F)ccc2cc(O)cc(-c3ncc4c(N5CCCCCN5)nc(OCC56CCCN5CCC6)nc4c3F)c12 [Compound 25]		IC50 [3]: 100 to 1000 nM
100 to 1000		C#Cc1c(F)ccc2cc(O)cc(-c3ccc4c(N5CCCCCN5)nc(OC[C@@]56CCCN5C[C@H](F)C6)nc4c3)c12 [Compound 26]		IC50 [3]: 1000 to 10000 nM
< 100		C#Cc1c(F)ccc2cc(N)cc(-c3ncc4c(N5CCCCCN5)nc(OC[C@@]56CCCN5C[C@H](F)C6)nc4c3F)c12 [Compound 30]		IC50 [4]: < 100 nM
< 100		C#Cc1c(F)ccc2cc(O)cc(-c3ncc4c(N5CCCCCN5)nc(OCC56CCCN5CC(F)(F)C6)nc4c3F)c12 (centres unmarked) [Compound 37]		IC50 [4]: < 100 nM
		C#Cc1c(F)ccc2cc(O)cc(-c3ncc4c(N5CCCC(O)CN5)nc(OC[C@@]56CCCN5C[C@H](F)C6)nc4c3F)c12 (some centres unmarked) [Compound 38]		IC50 [4]: 1000 to 10000 nM
		C#Cc1c(F)ccc2cc(O)cc(-c3ncc4c(N5CC(O)CCCN5)nc(OC[C@@]56CCCN5C[C@H](F)C6)nc4c3F)c12 (some centres unmarked) [Compound 39]		IC50 [4]: 1000 to 10000 nM
		C#Cc1c(F)ccc2cc(O)cc(-c3c(Cl)cc4c(N5CCCCCN5)nc(OC[C@@]56CCCN5C[C@H](F)C6)nc4c3F)c12 [Compound 41]		IC50 [4]: 1000 to 10000 nM
< 100		C#Cc1c(F)ccc2cc(O)cc(-c3c(F)cc4c(N5CCCCCN5)nc(OC[C@@]56CCCN5C[C@H](F)C6)nc4c3F)c12 [Compound 49]		IC50 [4]: < 100 nM
100 to 1000		C/C=C\c1c(Cl)cc2[nH]ncc2c1-c1c(F)cc2c(N3CCCCCN3)nc(OC[C@@]34CCCN3C[C@H](F)C4)nc2c1F [Compound 50]		IC50 [4]: 100 to 1000 nM
		C#Cc1c(F)ccc2cc(OC(=O)[C@@H](NC(=O)OC(C)(C)C)C(C)C)cc(-c3ncc4c(N5CCCCCN5)nc(OC[C@@]56CCCN5C[C@H](F)C6)nc4c3F)c12 [Compound 95]		IC50 [1, 6]: < 100 nM; IC50 (GP2D cells): < 100 nM
		C#Cc1c(F)ccc2cc(OC(=O)N[C@H](C(=O)O)[C@@H](C)CC)cc(-c3ncc4c(N5CCCCCN5)nc(OC[C@@]56CCCN5C[C@H](F)C6)nc4c3F)c12 [Compound 96]		IC50 [1, 6]: < 100 nM; IC50 (GP2D cells): < 100 nM
		C#Cc1c(F)ccc2cc(OC(=O)COCCOCCOCCOC)cc(-c3ncc4c(N5CCCCCN5)nc(OC[C@@]56CCCN5C[C@H](F)C6)nc4c3F)c12 [Compound 102]		IC50 [1, 6]: < 100 nM; IC50 (GP2D cells): < 100 nM
		C#Cc1c(F)ccc2cc(O)cc(-c3ncc4c(N5CCCCCN5)nc(OC[C@@]56CC[C@H](c7cc(F)c(F)c(F)c7)N5C[C@H](F)C6)nc4c3F)c12 [Compound 103]		IC50 [1, 6]: < 100 nM; IC50 (GP2D cells): < 100 nM
	< 100	C#Cc1c(F)ccc2cc(O)cc(-c3ncc4c(N5CCCCCN5)nc(OCC5(CN6CCC(=CF)CC6)CC5)nc4c3F)c12 [Compound 106]	< 100	
	100 to 1000	C#Cc1c(F)ccc2cc(O)cc(-c3ncc4c(N5CCCCCN5)nc(OC[C@@]56CC[C@H](c7cc(F)c(C(F)(F)F)c(F)c7)N5C[C@H](F)C6)nc4c3F)c12 [Compound 117]	100 to 1000	
	100 to 1000	C#Cc1c(F)ccc2cc(O)cc(-c3ncc4c(N5CCCCCN5)nc(OC[C@@]56CC[C@H](c7ccc(C(F)(F)F)c(F)c7)N5C[C@H](F)C6)nc4c3F)c12 [Compound 118]	100 to 1000	
	100 to 1000	C#Cc1c(F)ccc2cc(O)cc(-c3ncc4c(N5CCCCCN5)nc(OC[C@@]56CC[C@H](c7ccc(OC(F)(F)F)cc7)N5C[C@H](F)C6)nc4c3F)c12 [Compound 121]	100 to 1000	
		CCc1c(F)ccc2c(F)c(O)cc(-c3ncc4c(N5CCCCCN5)nc(OC[C@@]56CCCN5C[C@H](F)C6)nc4c3F)c12 [Compound 125]		IC50 [1, 6]: 100 to 1000 nM; IC50 (GP2D cells): 100 to 1000 nM
		C#Cc1c(F)ccc2cc(OC(=O)c3cc(F)c(F)c(F)c3)cc(-c3ncc4c(N5CCCCCN5)nc(OC[C@@]56CCCN5C[C@H](F)C6)nc4c3F)c12 [Compound 126]		IC50 [1, 6]: < 100 nM; IC50 (GP2D cells): < 100 nM
		C#Cc1c(F)ccc2cc(N)cc(-c3c(F)cc4c(N5CCCCCN5)nc(OC[C@@]56CCCN5C[C@H](F)C6)nc4c3F)c12 [Compound 131]		IC50 [1, 6]: 100 to 1000 nM; IC50 (GP2D cells): 100 to 1000 nM
	100 to 1000	CCc1c(F)ccc2cc(N)cc(-c3c(Cl)cc4c(N5CCCCCN5)nc(OC[C@@]56CCCN5C[C@H](F)C6)nc4c3F)c12 [Compound 134]	1000 to 10000	
	100 to 1000	C#Cc1c(F)ccc2cc(O)cc(-c3ncc4c(N5CCCCCN5)nc(OCC56COC(C5)C6)nc4c3F)c12 [Compound 137]	100 to 1000	
	100 to 1000	C#Cc1c(F)ccc2cc(OCOC(=O)N(C)C)cc(-c3ncc4c(N5CCCCCN5)nc(OC[C@@]56CCCN5C[C@H](F)C6)nc4c3F)c12 [Compound 145]	100 to 1000	
	< 100	C#Cc1c(F)ccc2cc(O)cc(-c3ncc4c(N5CCCCCN5)nc(OCC5(C)CN(C)CCC5C(F)F)nc4c3F)c12 (centres unmarked) [Compound 149]	< 100	
	< 100	C#Cc1c(F)ccc2cc(O)cc(-c3ncc4c(N5CCCCCN5)nc(OCC5(C)CN(C)CCC5CF)nc4c3F)c12 (centres unmarked) [Compound 150]	< 100	

Structure (SMILES)	IC50 [1, 5] [nM]	IC50 [1, 7] [nM]	IC50 (GP2D cells; 144 h) [nM]	other results
C#Cc1c(F)ccc2cc(OC(=O)NC)cc(-c3ncc4c(N5CCCCCN5)nc(OC[C@@]56CCCN5C[C@H](F)C6)nc4c3F)c12 [Compound 19]	< 100			IC50 ([2]; 144 h): 1000 to 10000 nM
C#Cc1c(F)ccc2cc(OC(=O)N(CCOC)CCOC)cc(-c3ncc4c(N5CCCCCN5)nc(OC[C@@]56CCCN5C[C@H](F)C6)nc4c3F)c12 [Compound 98]		< 100	< 100	
C#Cc1c(F)ccc2cc(OC(=O)N3CCCCC3)cc(-c3ncc4c(N5CCCCCN5)nc(OC[C@@]56CCCN5C[C@H](F)C6)nc4c3F)c12 [Compound 99]		< 100	< 100	
C#Cc1c(F)ccc2cc(OC(=O)NCCCCCCCCCCCCCCCC)cc(-c3ncc4c(N5CCCCCN5)nc(OC[C@@]56CCCN5C[C@H](F)C6)nc4c3F)c12 [Compound 101]		< 100	< 100	
C#Cc1c(F)ccc2cc(OC(=O)NCCCCCCCCCCCC)cc(-c3ncc4c(N5CCCCCN5)nc(OC[C@@]56CCCN5C[C@H](F)C6)nc4c3F)c12 [Compound 133]		< 100	< 100	
C#Cc1c(F)ccc2cc(OC(=O)N(C)C[C@@H]3CCCN3)cc(-c3ncc4c(N5CCCCCN5)nc(OC[C@@]56CCCN5C[C@H](F)C6)nc4c3F)c12 [Compound 151]		< 100	< 100	
C#Cc1c(F)ccc2cc(OC(=O)N(C)CCNC)cc(-c3ncc4c(N5CCCCCN5)nc(OC[C@@]56CCCN5C[C@H](F)C6)nc4c3F)c12 [Compound 153]		< 100	< 100	
